Source: patent publication US8318746B2, “Nitrogen-containing five-membered heterocyclic compound” (Takeda Pharmaceutical Company Limited, priority 2007, dated 2012)

Key:
[1] = biological target: T1, GST-hLGK1 (GST added to the amino terminal of human liver GK) (Homo sapiens, UniProt P35557); assay: Measurement of GK activation value; type: biochemical; conditions: test compound final concentration 10 μmol/L; reaction rate divided by that of control group (50% DMSO without test compound); Mant-ATP substrate, D-glucose, 37° C., 60 min
T1 construct: with a BamHI site added to immediately before the initiation codon; made in house; host or cells: Escherichia coli BL21 (Stratagene), plasmid pGEX6P-2/hLGK1
T1 sequence (P35557 1-464 isoform P35557-3): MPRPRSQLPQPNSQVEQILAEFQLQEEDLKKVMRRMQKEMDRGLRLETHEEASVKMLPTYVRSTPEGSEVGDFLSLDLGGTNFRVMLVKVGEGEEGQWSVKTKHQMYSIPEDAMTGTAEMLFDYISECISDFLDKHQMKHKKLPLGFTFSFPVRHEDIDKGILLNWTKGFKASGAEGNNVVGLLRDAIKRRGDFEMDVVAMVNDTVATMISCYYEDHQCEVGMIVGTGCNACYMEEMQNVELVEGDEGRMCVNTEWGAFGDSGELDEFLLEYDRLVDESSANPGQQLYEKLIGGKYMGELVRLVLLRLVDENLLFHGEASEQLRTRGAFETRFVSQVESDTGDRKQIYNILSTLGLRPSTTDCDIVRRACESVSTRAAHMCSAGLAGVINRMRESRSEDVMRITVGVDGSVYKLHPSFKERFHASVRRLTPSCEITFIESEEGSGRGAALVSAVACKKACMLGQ
Method: To each well of a 384-well black plate (Nalge Nunc International K.K.) was added 5 μL of 50% dimethyl sulfoxide solution containing test compound diluted to 100 μmol/L. Then, GST-hLGK1 obtained in Reference Example 2A was diluted with measurement buffer (containing 50 mM HEPES (pH 7.4), 200 mM KCl, 5 mM MgCl2, 2.5 mM DTT and 50 μM 2′-(or-3′)—O—(N-methylanthraniloyl) adenosine 5′-triphosphate (Mant-ATP) (Jena BioScience)) to 6 μg/mL and 35 μL thereof was added to each well.
Each well was stood at 37° C. for 10 min, 25 mM D-glucose solution (10 μL) was added to start the reaction. The final concentration of the test compound was 10 μmol/L.
Each, well after the reaction was stood at 37° C. for 60 min, and the reaction was quenched by adding 25 μL of a quenching solution (containing 200 mM HEPES (pH 7.4), 20 mM MgCl2, 200 mM EDTA, 0.03% Triton-X 100, 0.3% Coating 3 reagent (Caliper Life Sciences, Inc.)).
2′-(or-3′)-O-(N-methylanthraniloyl)adenosine 5′-triphosphate (Mant-ATP, substrate) and Mant-ADP (reaction resultant product) were separated from each well after the reaction by a microchip type capillary electrophoresis apparatus 250 HTS (Caliper Life Sciences, Inc.). The reaction rate [(reaction resultant product peak height)/(reaction resultant product peak height+substrate peak height)×100(%)] was calculated from the ratio of the substrate peak height and reaction resultant product peak height obtained by fluorescence detection (excitation wavelength 355 nm, measurement wavelength 460 nm) and used as the index of GK activity.
As a control group, the reaction rate was calculated in the same manner as above except that “solution in 50% dimethyl sulfoxide (without test compound)” was used instead of “solution of test compound in 50% dimethyl sulfoxide”.
The reaction rate of the well (test compound addition group) added with the test compound was divided by the reaction rate of the control group and the obtained percentage was taken as the GK activation value (Emax) of the test compound.

Row | Compound | Emax at 10 µM [1] [%] | melting point [°C]
1 | CCS(=O)(=O)CCNCc1cnc(-c2ccc(C(CC3CCOCC3)c3ccc(S(=O)(=O)C4CC4)cc3)[nH]2)s1.Cl (stereo not drawn) [Example 160, N-{[2-(5-{1-[4-(cyclopropylsulfonyl)phenyl]-2-(tetrahydro-2H-pyran-4-yl)ethyl}-1H-pyrrol-2-yl)-1,3-thiazol-5-yl]methyl}-2-(ethylsulfonyl)ethanamine hydrochloride] | 155 | 127 to 129
2 | O=S(=O)(c1ccc(C(CC2CCOCC2)c2ccc(-c3ccc(Cn4cncn4)cn3)[nH]2)cc1)C1CC1 (stereo not drawn) [Example 237, 2-(5-{1-[4-(cyclopropylsulfonyl)phenyl]-2-(tetrahydro-2H-pyran-4-yl)ethyl}-1H-pyrrol-2-yl)-5-(1H-1,2,4-triazol-1-ylmethyl)pyridine] | 152 | 152 to 153
3 | CC(O)c1nnc(-c2ccc(C(CC3CCOCC3)c3ccc(S(=O)(=O)C4CC4)cc3)[nH]2)s1 (stereo not drawn) [Example 225, 1-[5-(5-{1-[4-(cyclopropylsulfonyl)phenyl]-2-(tetrahydro-2H-pyran-4-yl)ethyl}-1H-pyrrol-2-yl)-1,3,4-thiadiazol-2-yl]ethanol] | 141 | –
4 | O=S(=O)(c1ccc(C(CC2CCOCC2)c2ccc(-c3nccs3)[nH]2)cc1)C1CC1 (stereo not drawn) [Example 7, 2-{5-[1-[4-(cyclopropylsulfonyl)phenyl]-2-(tetrahydro-2H-pyran-4-yl)ethyl]-1H-pyrrol-2-yl}-1,3-thiazole] | 179 | –
